Test results published in patent US20140243411A1 (priority 2011, published 2014).

Experiments:
[1] = Equilibrium solubility of C2E5 in aqueous media of varying pH; assay type: physicochemical; details: aqueous buffer, thermodynamic from solid
[2] = In vitro C2E5 metabolism studies using SD rat skin S9 fractions; assay type: in vitro ADME
[3] = Pharmacokinetics of neat C2E5 and C2E5 non-aqueous gel, plasma LC/MS/MS (Example 9); assay type: in vivo, Sprague-Dawley (SD) rats; details: SD rat plasma; 200 mg/kg
Experimental: All animal studies were conducted according to a protocol approved by the University of North Carolina at Chapel Hill Institutional Animal Care and Use Committee (IACUC). Ten-week-old adult female Sprague-Dawley (SD) rats weighing from 200 to 300 g were used in these studies (Charles River Labs, Raleigh, N.C.). Food and water were given ad libitum. The animal room was kept at a controlled temperature (23° C.) and light cycle (light exposure from 8 AM to 8 PM). For the duration of the study, the rats were housed in metabolic cages individually with urine and feces collection until euthanasia at 24 h after neat C2E5 or C2E5 gel application.
Neat C2E5 (i.e., only C2E5) at a dose of 200 mg/kg was applied using a 1 mL syringe to the same size area as a positive control. […] The mass of neat C2E5 or C2E5 gel applied was recorded for each animal to permit actual dose determination. […] The animals were observed during the study period and the body weight of the animals was recorded at pre-dose and prior to necropsy.
Acidified plasma samples (100 μL) were first treated with 25 μL of ^13C—C2E5 stable-label internal standard (1000 ng/mL), followed by precipitation with MeCN (400 μL). […] After separation by liquid chromatography, the analytes and internal standard were detected on a triple quadrupole mass spectrometer using heated electrospray ionization (HESI-II) in the positive-ion mode. […]

Q: With `CCOC(=O)CN(CCN(CC(=O)OCC)CC(=O)OCC)CCN(CC(=O)OCC)CC(=O)OCC` [Formulation C2E5, penta-substituted ethyl ester of DTPA] as the molecule, how does the solubility thermodynamic ([1]; pH 5.7, room temperature) read?
A: The solubility thermodynamic was 20.3 mg/mL.

Q: And the solubility thermodynamic ([1]; pH 7.1, room temperature)?
A: Its solubility thermodynamic is 3 mg/mL.

Q: And the “conversion of C2E5 to DTPA” value [2]?
A: The value was “only minimally observed”.

Q: And the “C2E1 in plasma samples” value [3]?
A: The value was “not detected”.
